Here are results for 19 compounds from ChEMBL document CHEMBL5260834, “Benzomorphan skeleton, a versatile scaffold for different targets: A comprehensive review” (Eur J Med Chem, 2018).

Where only a bound is given, the exact number is not on record here.

Test [1] deals with T1, Sigma non-opioid intracellular receptor 1 (Cavia porcellus, UniProt Q60492). The test can be described thus: Displacement of [3H]-(+)-pentazocine from sigma1 receptor in guinea pig brain membrane assessed as inhibition constant measured for 150 mins. In kind it is cell membranes. In general terms: Displacement assays read how much labelled ligand stays bound in the presence of the test substance.
T1 sequence (Q60492 whole entry): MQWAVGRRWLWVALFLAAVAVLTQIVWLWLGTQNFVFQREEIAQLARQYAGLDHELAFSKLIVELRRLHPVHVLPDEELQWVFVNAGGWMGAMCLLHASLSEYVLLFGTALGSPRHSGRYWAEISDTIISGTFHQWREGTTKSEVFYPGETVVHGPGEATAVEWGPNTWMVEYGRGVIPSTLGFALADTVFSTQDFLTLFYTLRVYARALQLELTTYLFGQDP

Test [2] deals with T2, Sigma intracellular receptor 2 (Homo sapiens, UniProt Q5BJF2). The test can be described thus: Displacement of [3H]DTG from sigma 2 receptor (unknown origin) assessed as inhibition constant in presence of haloperidol measured for 120 mins by scintillation counting analysis.
T2 sequence (Q5BJF2 whole entry): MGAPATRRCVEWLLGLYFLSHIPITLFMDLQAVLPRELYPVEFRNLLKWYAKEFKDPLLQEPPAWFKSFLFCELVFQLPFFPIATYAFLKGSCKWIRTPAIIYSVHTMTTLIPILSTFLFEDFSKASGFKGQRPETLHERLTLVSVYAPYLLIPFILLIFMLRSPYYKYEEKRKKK
A short description of test [3]: Ratio of Ki for displacement of [3H]DTG from sigma 2 receptor (unknown origin) assessed as inhibition constant in presence of haloperidol to Ki for displacement of [3H]-(+)-pentazocine from sigma1 receptor in guinea pig brain membrane assessed as inhibition constant. The test is classed as cell membranes.
For test [4], the target named is T3, Sigma non-opioid intracellular receptor 1 (Homo sapiens, UniProt Q99720). The test can be described thus: Inhibition of sigma 1 receptor (unknown origin).
T3 sequence (Q99720 whole entry): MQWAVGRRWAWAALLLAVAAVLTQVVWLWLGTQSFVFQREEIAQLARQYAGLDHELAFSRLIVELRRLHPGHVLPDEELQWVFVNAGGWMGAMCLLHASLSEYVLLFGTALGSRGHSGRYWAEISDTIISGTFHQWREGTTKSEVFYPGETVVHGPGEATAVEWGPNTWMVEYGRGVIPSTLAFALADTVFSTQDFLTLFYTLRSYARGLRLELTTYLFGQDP
For test [5], the target named is T1, Sigma non-opioid intracellular receptor 1. Nature of the test: Displacement of [3H]-(+)-pentazocine from sigma1 receptor in guinea pig brain membrane assessed as inhibition constant measured after 120 mins by scintillation counting method. The test is classed as cell membranes.
The target in test [6] is Mu-type opioid receptor (Homo sapiens, UniProt P35372). Nature of the test: Displacement of [3H]-DAMGO from human MOR receptor assessed as inhibition constant by cheng-prusoff equation assay.
Mu-type opioid receptor (Homo sapiens, UniProt P35372), sequence (P35372 whole entry): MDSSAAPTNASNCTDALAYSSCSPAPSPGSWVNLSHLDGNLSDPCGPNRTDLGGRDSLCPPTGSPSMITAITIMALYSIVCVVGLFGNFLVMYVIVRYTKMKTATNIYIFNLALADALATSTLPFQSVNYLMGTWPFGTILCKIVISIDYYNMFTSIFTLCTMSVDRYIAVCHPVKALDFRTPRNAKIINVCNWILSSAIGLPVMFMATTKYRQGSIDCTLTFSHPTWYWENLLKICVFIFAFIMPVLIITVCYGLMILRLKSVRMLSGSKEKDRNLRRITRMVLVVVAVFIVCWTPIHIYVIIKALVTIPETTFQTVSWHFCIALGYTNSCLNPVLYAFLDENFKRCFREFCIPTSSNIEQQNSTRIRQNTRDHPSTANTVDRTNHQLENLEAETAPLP
Test [7] is described as follows: Ratio of Ki for displacement of[3H]-DAMGO from human MOR receptor to Ki for displacement of [3H]-(+)-pentazocine from sigma1 receptor in guinea pig brain membrane. The test is classed as cell membranes.
Test [8] has as its target T2, Sigma intracellular receptor 2. Nature of the test: Displacement of [3H]DTG from sigma 2 receptor (unknown origin) assessed as inhibition constant.
Test [9] can be described thus: Ratio of Ki for displacement of [3H]DTG from sigma 2 receptor (unknown origin) to Ki for displacement of [3H]-(+)-pentazocine from sigma1 receptor in guinea pig brain membrane. In kind it is cell membranes.
For test [10], the target named is T1, Sigma non-opioid intracellular receptor 1. The test can be described thus: Displacement of [3H]-(+)-pentazocine from sigma1 receptor in guinea pig brain membrane assessed as inhibition constant. The test is classed as cell membranes.
Test [11] deals with T4, Sigma intracellular receptor 2 (Rattus norvegicus, UniProt Q5U3Y7).
T4 sequence (Q5U3Y7 whole entry): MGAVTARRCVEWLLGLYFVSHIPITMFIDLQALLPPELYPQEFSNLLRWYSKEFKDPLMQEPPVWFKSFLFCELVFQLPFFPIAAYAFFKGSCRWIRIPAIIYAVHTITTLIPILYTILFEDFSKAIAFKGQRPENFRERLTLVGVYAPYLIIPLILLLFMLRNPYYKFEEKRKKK
The test can be described thus: Displacement of [3H]DTG from sigma 2 receptor in rat liver membranes assessed as inhibition constant presence of dextrallorphan. The test is classed as cell membranes, Membrane.

Test [12] in a line: Ratio of Ki for displacement of [3H]-(+)-pentazocine from sigma1 receptor in guinea pig brain membrane assessed as inhibition constant to Ki for displacement of [3H]-(+)-pentazocine from sigma1 receptor in guinea pig brain membrane assessed as inhibition constant. The test is classed as cell membranes. Also noted: reference not given here.
Test [13] has as its target T2, Sigma intracellular receptor 2. Nature of the test: Displacement of [3H]DTG from sigma 2 receptor (unknown origin) assessed as inhibition constant incubated for 120 mins in presence of (+)-SKF10047 by radioligand binding assay.
The target in test [14] is T1, Sigma non-opioid intracellular receptor 1. The test can be described thus: Displacement of [3H]-(+)-pentazocine from sigma1 receptor in guinea pig brain membrane assessed as inhibition constant measured for 150 mins in presence of haloperidol. The test is classed as cell membranes.
Test [15] addresses Mu-type opioid receptor (Rattus norvegicus, UniProt P33535). The test can be described thus: Displacement of [ 3H]-naloxone from rat brain membrane mu opioid receptor assessed as inhibition constant by radioligand binding assay. The test is classed as cell membranes.
The target of test [16] is T3, Sigma non-opioid intracellular receptor 1. The test can be described thus: Agonist activity at sigma1 receptor (unknown origin). Particulars: filed as agonist.
In test [17] the target is T2, Sigma intracellular receptor 2.
Description: Inhibition of sigma 2 receptor (unknown origin)
For test [18], the target named is Kappa-type opioid receptor (Homo sapiens, UniProt P41145). Nature of the test: Displacement of [3H]-diprenorphine from KOR receptor (unknown origin) assessed as inhibition constant in presence of D-Ala-N-MePhe-Gly-ol-enkephalin and D-Ala-DLeu-enkephalin.
Kappa-type opioid receptor, sequence (P41145 whole entry): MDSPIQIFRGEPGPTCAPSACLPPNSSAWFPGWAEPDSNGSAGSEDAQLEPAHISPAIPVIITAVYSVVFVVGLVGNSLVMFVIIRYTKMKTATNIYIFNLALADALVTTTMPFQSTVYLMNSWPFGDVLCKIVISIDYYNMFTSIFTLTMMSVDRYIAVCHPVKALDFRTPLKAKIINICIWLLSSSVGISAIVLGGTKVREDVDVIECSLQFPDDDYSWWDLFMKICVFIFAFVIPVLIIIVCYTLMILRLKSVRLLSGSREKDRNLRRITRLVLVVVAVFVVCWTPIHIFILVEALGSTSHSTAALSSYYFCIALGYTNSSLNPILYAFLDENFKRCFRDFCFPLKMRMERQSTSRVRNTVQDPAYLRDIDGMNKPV
Test [19] addresses T3, Sigma non-opioid intracellular receptor 1. The test can be described thus: Displacement of [3H]-(+)-pentazocine from sigma1 receptor (unknown origin) assessed as inhibition constant.
Test [20] deals with T2, Sigma intracellular receptor 2. Nature of the test: Displacement of [3H]DTG from sigma 2 receptor (unknown origin) assessed as inhibition constant in presence of (+)-SKF10047 by radioligand binding assay.
Test [21] addresses T4, Sigma intracellular receptor 2. Nature of the test: Displacement of [3H]DTG from sigma 2 receptor in rat liver membranes assessed as inhibition constant presence of haloperidol by scintillation counting analysis. In kind it is cell membranes, Membrane.
Test [22] in a line: Ratio of Ki for displacement of [3H]DTG from sigma 2 receptor in rat liver membranes assessed as inhibition constant presence of haloperidol by scintillation counting analysis to Ki for displacement of [3H]-(+)-pentazocine from sigma 1 receptor in guinea pig brain membrane assessed as inhibition constant in presence of haloperidol. The test is classed as cell membranes.

Usually Ki stands for a measure of affinity in units of concentration, obtained from inhibition or displacement. A word on the ED50: it is the midpoint of the dose-response relation.

Mu-type opioid receptor (Rattus norvegicus, UniProt P33535), sequence (P33535 whole entry): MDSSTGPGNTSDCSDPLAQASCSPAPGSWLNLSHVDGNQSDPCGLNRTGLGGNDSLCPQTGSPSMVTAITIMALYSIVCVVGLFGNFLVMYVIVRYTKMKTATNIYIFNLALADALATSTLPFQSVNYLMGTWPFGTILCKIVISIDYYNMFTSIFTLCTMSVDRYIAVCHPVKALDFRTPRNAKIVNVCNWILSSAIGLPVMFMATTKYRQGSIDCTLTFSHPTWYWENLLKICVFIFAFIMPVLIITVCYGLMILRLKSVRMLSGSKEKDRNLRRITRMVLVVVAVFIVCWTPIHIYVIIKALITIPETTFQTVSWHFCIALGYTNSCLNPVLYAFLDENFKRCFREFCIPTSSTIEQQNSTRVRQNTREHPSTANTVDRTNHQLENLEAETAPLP

Regarding `C[C@@H]1[C@@H]2Cc3ccc(N(C)C)cc3[C@]1(C)CCN2Cc1ccccc1`, the Ki was determined as 1.75 nM in test [1] and 258 nM in test [2]. The Ratio Ki in [3] turned out to be 150.
In test [4], `C=CCCN1CC[C@]2(C)c3cc(O)ccc3C[C@@H]1[C@@H]2C` registered an inhibition constant (Ki) of 620 nM.
Turning to `C[C@@H]1[C@@H]2Cc3ccc(O)cc3[C@]1(C)CCN2Cc1ccccc1`, the Ki was found to be 0.67 nM in test [5], 1610 nM in [6] and 1710 nM in test [8]. Further, the Ratio Ki in test [7] worked out at 2400; in [9] it was 2600.
With `C[C@@H]1[C@@H]2Cc3ccc(N)cc3[C@]1(C)CCN2Cc1ccccc1`, the Ki in test [1] was 1.47 nM; in test [2], 832 nM. In test [3], the Ratio Ki was determined as 570.
Turning to `C[C@@H]1[C@@H]2Cc3cc(I)c(O)cc3[C@]1(C)CCN2Cc1ccccc1`, the Ki in [10] was 231 nM; in test [11], 597 nM.
In the case of `CC(C)=CCN1CC[C@@]2(C)c3cc(F)ccc3C[C@H]1[C@H]2C`, the results for the Ki in [1] and in test [2] were 1.48 nM and 154 nM, respectively. Besides, the Ratio Ki in test [3] worked out at 104.
With `C[C@@H]1[C@@H]2Cc3ccc(O)c(Br)c3[C@]1(C)CCN2Cc1ccccc1`, the Ki is 1.75 nM in [10] and 346 nM in [11]. Moreover, the Ratio Ki in [12] amounted to 200.
Turning to `C[C@@H]1[C@@H]2Cc3ccc(O)cc3[C@]1(C)CCN2CCN1CCCCC1`, the Ki was 114 nM in test [13], 9.6 nM in test [14] and 12000 nM in test [15]. In addition, in test [16], the ED50 was 0.88 mg/kg.
On to `C[C@@H]1[C@@H]2Cc3ccc(O)c(Cl)c3[C@]1(C)CCN2Cc1ccccc1`, for which the Ki in test [10] turned out to be 1.72 nM; in [11], 764 nM. Also, the Ratio Ki in test [12] was 440.
The compound `C/C=C/CN1CCN(c2ccc3c(c2)[C@H]2C[C@@H]3CCN2C(=O)OCc2ccccc2)CC1` gave a Ki in test [17] of 16 nM.
As to `CC(C)=CCN1CC[C@@]2(C)c3c(ccc(O)c3Cl)C[C@H]1[C@H]2C`, the figures for the Ki in test [10] and in test [11] were 2.62 nM and 4960 nM, respectively.
Regarding `C[C@@H]1[C@@H]2Cc3ccc(O)cc3[C@]1(C)CCN2CCN(C)c1ccccc1`, the Ki in [13] worked out at 124 nM; in test [14], 5.6 nM; in test [15], 28.8 nM.
As for `C[C@@H]1[C@@H]2Cc3ccccc3[C@]1(C)CCN2CCNc1ccccc1`, the values for the Ki in [18], in test [19] and in test [20] were 6500 nM, 21 nM and 144 nM, respectively.
For the compound `CC[C@@H]1[C@@H]2CCN(Cc3ccccc3)[C@@H]1Cc1ccccc12`, the Ki is 3.36 nM in test [14] and 115 nM in test [21]. For the same compound, the Ratio Ki in test [22] is 34.
Turning to `C[C@@H]1[C@@H]2Cc3ccccc3[C@]1(C)CCN2CCN(C)c1ccccc1`, the Ki in test [18] was over 10000 nM; in test [19], 91 nM; in [20], 157 nM.
For `C[C@@H]1[C@@H]2Cc3ccc(O)cc3[C@]1(C)CCN2CCNc1ccccc1`, the Ki in [13] was 111 nM; in test [14], 5.9 nM; in [15], 79.8 nM.
For `C[C@@H]1[C@@H]2CCN(Cc3ccccc3)[C@@H]1Cc1ccccc12`, the Ki in test [14] turned out to be 0.96 nM; in test [21] it was 131 nM. For the same compound, in test [22], the Ratio Ki came out at 136.
`C[C@@H]1[C@@H]2Cc3ccccc3[C@]1(C)CCN2CCN1CCCCC1`: the figures for the Ki in test [18], in [19] and in [20] were over 10000 nM, 20 nM and 130 nM, respectively.
As to `CC(C)=CCN1CC[C@@]2(C)c3c(ccc(O)c3Br)C[C@H]1[C@H]2C`, the Ki was 2.49 nM in test [10] and 283 nM in test [11].
